Reference: patent US20120172397A1, “HEXAHYDROCYCLOPENTA[f]INDAZOLE 5-YL ETHANOLS AND DERIVATIVES THEREOF AS SELECTIVE GLUCOCORTICOID RECEPTOR MODULATORS” (MERCK SHARP & DOHME CORP., priority 2009, published 2012)
pEC50: −log10 of the molar value. Like-named read-outs stand apart in the source and are kept apart here.

Experiments:
[1] = tested on: human GR (TNFα promoter β-lactamase reporter, U937 cells); experiment: Transrepression Assay (GITAR), TNFα-β-lactamase reporter in U937 cells; assay type: cell-based; conditions: for pEC50: TNFα-β-lactamase reporter, PMA/LPS stimulated, read-out: Transrepression U937 Cells GITAR IP (inflection point); for Transrepression U937 Cells GITAR Emax / Emax: activity repressed by 100 nM dexamethasone set as 100%
Excerpt: This assay assesses the ability of test compounds to control transcription from the TNFα-β-lactamase reporter gene in U937 cells, a human myelomonocytic leukemia cell line that naturally expresses the human GR. The assay measures compound dependent-repression of the TNFa promoter linked to a reporter gene.
The human U937cells that had been stablely transfected with the TNF-α promoter driving β-lactamase are used for this assay. U937 cells contain an endogenous glucocorticoid receptor (GR). Cells are maintained in RPMI 1640 Growth medium (Gibco Cat#11875-093) containing 25 mM HEPES, 10% FBS, 2 mM L-Glutamine, 1 mM Sodium pyruvate, 25 μg/ml Gentamicin (Gibco Cat#15710-064), 1:1000 2-Mercaptoethanol (Gibco Cat#21985-023) and 0.8 mg/ml G418 (Gibco Cat#10131-027). The density of the cells in the flask needs to be about 1×106−3×10^6/ml at the time of harvest. Usually, the cells are split to 1.2˜1.4×10^5/ml (1:10) 3 days prior to the assay. 50,000 cells/well are plated in 96 well black-walled plates the day of assay. Test compounds are added 10 μL/well, and cells are incubated at 37° C. for 30-45 min. For assaying compounds, first dilute 1:10 in DMSO to make 1 mM, then further dilute 1:100 in medium to make 10 × stock prior to adding to the cells. Add 50 ng/ml PMA (Sigma, cat# P8139) 10 μL/well to a final concentration 5 ng/ml, and 1 μg/ml LPS (Sigma, cat# L4130) 10 μL/well to a final concentration 100 ng/ml. Incubate cells at […] overnight for˜18 hr. PMA is stored frozen as 100 μg/ml stock in DMSO. Dilute 1:10 in DMSO for a working stock of 10 μg/ml and store at −20° C. For assaying, dilute the 10 μg/ml working stock 1:200 in medium to make a 10× solution (50 ng/ml). Store frozen LPS at 1 mg/ml in PBS, dilute 1:1000 in medium to make 10× (1 μg/ml) for the assay. Add 6× loading buffer (CCF2-AM) 20 μL/well, and incubate at room temperature for 70˜90 min. […] The activity repressed by 100 nM dexamethasone alone is set as 100% activity.

[2] = tested on: human GR (MMTV-LUC reporter gene, A549 cells); experiment: Trans-Activation Modulation of Glucocorticoid Receptor Assay (GRAMMER), MMTV-LUC reporter in A549 cells; assay type: cell-based; conditions: for pEC50: MMTV-LUC reporter, agonist mode, read-out: Transactivation A549 Cells GRAMMER IP (inflection point); for Transactivation A549 Cells GRAMMER Emax / Emax: Emax relative to the activity obtained with 300 nM dexamethasone; for Emax: read-out: Transactivation A549 Cells GRAMMER Emax
Excerpt: Trans-Activation Modulation of Glucocorticoid Receptor Assay
This assay assesses the ability of test compounds to control transcription from the MMTV-LUC reporter gene in lung adenocarcinoma A549 cells or HeLa cells, a human […] cell line that naturally expresses the human GR. The assay measures induction of a modified MMTV LTR/promoter linked to the LUC reporter gene.
The routine transient assay consists of plating 7,000-25,000 cells/well of a white, clear-bottom 96-well plate. Alternatively, 384-well plates can be used at a cell concentration of 10,000 /well. The media that the cells are plated in is “exponential growth medium” which consists of phenol red-free RPMI1640 containing 10%FBS, 4 mM L-glutamine, 20 mM HEPES, 10 μg/mL human insulin, and 20 μg/mL gentamicin. Incubator conditions are 37° C. and 5% CO2. The transfection is done in batch mode. The cells are trypsinized and counted to the right cell number in the proper amount of fresh media. It is then gently mixed with the FuGene6/DNA mix and plated onto the 96 or 384-well plate, all the wells receive 100 μL or 40 μL, respectively, of medium +lipid/DNA complex then incubated 37° C. overnight. The transfection cocktail consists of serum-free OptiMEM, FuGene6 reagent and DNA. The manufacturer's (Roche Biochemical) protocol for cocktail setup is as follows: The lipid to DNA ratio is approximately 2.5:1 and the incubation time is 20 min at room temperature. Sixteen to 24 hours after transfection, the cells are treated with dexamethasone to a final concentration of 10 nM as well as the compound of interest, such that final DMSO (vehicle) concentration is equal to or less than 1%. Each plate also contains samples that are treated with 10 nM dexamethasone alone, which is used as the 100% activity control. The cells are exposed to the compounds for 24 hours. After 24 hours, the cells are lysed by a Promega cell culture lysis buffer for approximately 30 min and then the luciferase activity in the extracts is assayed in the 96-well format luminometer. In 384-well format, Steady-Glo (Promega) or Steady-Lite (PerkinElmer) can be used by adding an equal volume of reagent to the media present in each well. Activity induced by 10 nM dexamethasone alone is set at 100% activity. Antagonist activity is calculated by determining the decrease in dexamethasone-induced activity in response to compound treatment relative to samples that were treated with dexamethasone alone. Results are expressed as % inhibition of 10 nM dexamethasone activity or as fold of 10 nM dexamethasone activity. This transactivation assay can be performed in an agonist and antagonist mode to identify these different activities.
Activity of test compounds is calculated as the Emax relative to the activity obtained with 300 nM dexamethasone. Activity of test compounds is calculated as the Emax relative to the activity obtained with 300 nM DEX. The exemplified tissue selective glucocorticoid receptor modulators of the present invention display agonist activity in this assay of greater than 5% and less than 100%, and maximal transactivation activity less then maximal transrepression activity. […]

[3] = Homo sapiens, U-937, U937 cells

Row | SMILES | pEC50 ([1]; U937 cells) | Transrepression U937 Cells GITAR Emax ([1]; U937 cells) | pEC50 ([2]; A549 cells) | Transactivation A549 Cells GRAMMER Emax ([2]; A549 cells) | Emax [1, 3] | pEC50 ([2]; Homo sapiens, A549, A549 cells) | Emax ([2]; Homo sapiens, A549, A549 cells) | pEC50 [1, 3]
1 | C[C@]12Cc3cnn(-c4cccnc4)c3C=C1CC[C@@H]2CC(O)c1ccccc1 (single isomer, unassigned) [Example 1a] | 6.56 | 75.4% | 6.46 | 29.7% | – | – | – | –
2 | C[C@]12Cc3cnn(-c4cccnc4)c3C=C1CC[C@@H]2CC(O)c1ccccc1 (single isomer, unassigned) [Example 1b] | 5.77 | 49.3% | 6.09 | 8.5% | – | – | – | –
3 | COc1ccccc1C(O)C[C@H]1CCC2=Cc3c(cnn3-c3cccnc3)C[C@@]21C (single isomer, unassigned) [Example 2a] | 6.64 | 79.5% | 6.52 | 68.5% | – | – | – | –
4 | COc1ccccc1C(O)C[C@H]1CCC2=Cc3c(cnn3-c3cccnc3)C[C@@]21C (single isomer, unassigned) [Example 2b] | 5.94 | – | 6.09 | 21.5% | 73.9% | – | – | –
5 | COc1cccc(C(O)C[C@H]2CCC3=Cc4c(cnn4-c4cccnc4)C[C@@]32C)c1 (single isomer, unassigned) [Example 4a] | 6.94 | 74.8% | – | 47.7% | – | 6.33 | – | –
6 | COc1cccc(C(O)C[C@H]2CCC3=Cc4c(cnn4-c4cccnc4)C[C@@]32C)c1 (single isomer, unassigned) [Example 4b] | 6.26 | 47.0% | 6.10 | 15.3% | – | – | – | –
7 | C[C@]12Cc3cnn(-c4cccnc4)c3C=C1CC[C@@H]2CC(O)c1ccccn1 (single isomer, unassigned) [Example 6a] | 6.25 | – | – | – | 16.6% | 5.93 | 1.6% | –
8 | C[C@]12Cc3cnn(-c4cccnc4)c3C=C1CC[C@@H]2CC(O)c1ccccn1 (single isomer, unassigned) [Example 6b] | 5.86 | 30.0% | 5.84 | 2.2% | – | – | – | –
9 | CC(O)(C[C@H]1CCC2=Cc3c(cnn3-c3cccnc3)C[C@@]21C)c1ccccc1 (single isomer, unassigned) [Example 7a] | 7.10 | – | 7.13 | 53.1% | 84.2% | – | – | –
10 | CC(O)(C[C@H]1CCC2=Cc3c(cnn3-c3cccnc3)C[C@@]21C)c1ccccc1 (single isomer, unassigned) [Example 7b] | 6.41 | 65.9% | 6.50 | 20.0% | – | – | – | –
11 | COc1ccc(C(O)C[C@H]2CCC3=Cc4c(cnn4-c4cccnc4)C[C@@]32C)cn1 (stereo partly drawn) [Example 3, 1-(6-methoxypyridin-3-yl)-2-[(4αR,5R)-4α-methyl-1-(pyridin-3-yl)-1,4,4α,5,6,7-hexahydrocyclopenta[f]indazol-5-yl] ethanol] | – | – | – | – | 85.2% | 6.80 | 101% | 6.70
12 | COc1ccc(C(O)C[C@H]2CCC3=Cc4c(cnn4-c4cccnc4)C[C@@]32C)cc1 (stereo partly drawn) [Example 5, 1-(4-methoxyphenyl)-2-[(4αR,5R)-4α-methyl-1-(pyridin-3-yl)-1,4,4α,5,6,7-hexahydrocyclopenta[f]indazol-5-yl] ethanol] | – | – | – | – | 87.3% | 7.27 | 90.7% | 7.68
